Each structure is given as a SMILES string. Values joined by “and” are separate entries in the source; they are usually repeats but may differ in a detail not shown here. Identical values can stand only once. Counter-ions that a name gives are not always drawn. Like-named read-outs stand apart in the source and are kept apart here.

Data on 11 molecules can be found in patent publication US9212144B2, “2-aminoquinoline-based compounds for potent and selective neuronal nitric oxide synthase inhibition” (priority 2014, dated 2015).

For one data set, the system named is newborn rabbit kits. Particulars: administered intravenously to the dam; cited from earlier work.
The next data set deals with Caco-2 cells. The note with it: background statement on prior art compound; cited from earlier work.
A further data set concerns the target human nNOS (Homo sapiens (Human), UniProt P29475). The data set can be described thus: Purified NOS enzyme assay (hemoglobin capture), human nNOS. The format is biochemical.
A further data set deals with bovine eNOS (Bos taurus (Bovine), UniProt P29473). Description: Purified NOS enzyme assay (hemoglobin capture), bovine eNOS. In kind it is biochemical. Particulars: for Ki: bovine eNOS, Ki calculated from IC50, average of at least two replicates; for Selectivity n/e: ratio of respective Ki values (eNOS/nNOS).
For another data set, the target named is rat nNOS (Rattus norvegicus (Rat), UniProt P29476). The data set can be described thus: Purified NOS enzyme assay (hemoglobin capture), rat nNOS. In kind it is biochemical.
The next data set concerns the target murine macrophage iNOS (Mus musculus (Mouse), UniProt P29477). Particulars: for Selectivity n/i: ratio of respective Ki values (iNOS/nNOS); for Ki: read-out: Ki iNOS, murine iNOS, Ki calculated from IC50, average of at least two replicates.
The mark [1] stands for this setting: rat nNOS, Ki calculated from IC50, average of at least two replicates, read-out: Ki nNOS.

Consider `Cc1cc(N)nc(C[C@@H]2CNC[C@@H]2NCCNCCc2cccc(F)c2)c1` [Compound 1], for which the “effect on hypoxic-ischemic brain damage phenotype” value in the data set with newborn rabbit kits is “reverses a hypoxic-ischemic brain damage phenotype”.
Turning to `[H]/N=C(/Nc1cccc(CNCCc2cccc(F)c2)c1)c1cccs1` [Compound 3], the “Caco-2 permeability” value with Caco-2 cells is recorded as “poor”.
Consider `Cl.Cl.Nc1ccc2ccc(CNCCc3cccc(F)c3)cc2n1` [Compound 5, 7-[(3-Fluorophenethylamino)methyl]quinolin-2-amine Dihydrochloride], for which the Ki on human nNOS (human nNOS, Ki calculated from IC50, average of at least two replicates) was 0.493 µM; on bovine eNOS it was 0.485 µM; at rat nNOS (purified nNOS, read-out: inhibition of nNOS) it was 0.074 µM; on rat nNOS (rat nNOS, Ki calculated from IC50, average of at least two replicates, Dihydrochloride, read-out: Ki nNOS), 0.075 µM and 0.074 µM; on murine macrophage iNOS, 9.14 µM. Further, the “Selectivity (Rat/Human)” value on human nNOS (ratio of respective Ki values, Ki-human/Ki-rat) came to 6.7. Besides, the “selectivity for nNOS over eNOS” value at bovine eNOS is recorded as “approximately 6 fold”. The Selectivity n/e at bovine eNOS amounted to 6.2. On murine macrophage iNOS, the Selectivity n/i came out at 124.
`Cl.Cl.Nc1ccc2ccc(CCNCc3cccc(F)c3)cc2n1` [Compound 6, 7-[2-(3-Fluorobenzylamino)ethyl]quinolin-2-amine Dihydrochloride]: on bovine eNOS, the Ki was 7.77 µM and the Selectivity n/e was determined as 30. Moreover, at rat nNOS (setting [1]), the Ki was 0.254 µM. Also, at murine macrophage iNOS, the Selectivity n/i was found to be 97 and the Ki was 24.5 µM.
On to `Cl.Cl.Nc1ccc2ccc(CNCCCc3cccc(F)c3)cc2n1` [Compound 9, 7-{2-[3-(3-Fluorophenyl(propylamino)methyl]}quinolin-2-amine Dihydrochloride], for which the Ki is 3.69 µM on bovine eNOS, 0.06 µM on rat nNOS (setting [1]) and 32.3 µM on murine macrophage iNOS.
`Cl.Cl.Nc1ccc2ccc(CNCCCc3cccc(F)c3)cc2n1` [Compound 9]: at bovine eNOS, the Selectivity n/e came out at 62. In addition, the Selectivity n/i at murine macrophage iNOS is listed as 538.
As to `Nc1ccc2cc(CNCCc3cccc(F)c3)ccc2n1` [Compound 10, 6-[(3-Fluorophenethylamino)methyl]quinolin-2-amine Dihydrochloride], the Ki at rat nNOS (setting [1]) is more than 5.7 µM.
Still for that read-out and setting: the figure for `Nc1ccc2cc(CCNCc3cccc(F)c3)ccc2n1` [Compound 11, 6-[2-(3-Fluorobenzylamino)ethyl]quinolin-2-amine Dihydrochloride] is more than 5.7 µM.
Regarding `Nc1ccc2cc(CCNCCc3cccc(F)c3)ccc2n1` [Compound 12, 6-[(3-Fluorophenethylamino)ethyl]quinolin-2-amine Dihydrochloride], on rat nNOS (setting [1]), the Ki was more than 5.7 µM.
In the case of `Cl.Cl.Nc1ccc2ccc(CCNCCc3ccc(F)cc3)cc2n1` [Compound 14, 7-[(4-Fluorophenethylamino)ethyl]quinolin-2-amine Dihydrochloride], the Ki on bovine eNOS was 8.86 µM; at rat nNOS (setting [1]) it was 0.183 µM; at murine macrophage iNOS, 51.2 µM. Besides, the Selectivity n/e on bovine eNOS is recorded as 37. In addition, the Selectivity n/i at murine macrophage iNOS worked out at 280.
For `Cl.Cl.Nc1ccc2ccc(CCNCCc3ccc(Cl)cc3)cc2n1` [Compound 16, 7-[(4-Chlorophenethylamino)ethyl]quinolin-2-amine Dihydrochloride] the same measures were 9.89 µM, 0.212 µM, 19.2 µM, 47 and 91.
